Results on four compounds are retold here after patent EP1031349A1, “Use of substituted 4-biarylbutyric and 5-biarylpentanoic acid derivatives for the treatment of cerebral diseases” (Bayer Aktiengesellschaft, priority 1999, dated 2000).

The subject of experiment [1] is Wistar rats. The experiment is described as follows: Subdural hematoma (SDH) model in rats, quantification of edema formation. The format is in vivo. The note with it: rat-SDH- model, dose of 0.3 mg/kg i.v., edema assessed 24 hours after surgery. The method, then: Wistar rats, weighting 200-250 g were used. Anaesthesia was induced with i.p. injection of 1.2 ml Ketavet (120 mg Ketamin) and 0.8 ml Rompun™ (2% Xylancin) per animal. Body temperatures were maintained at 37°C by means of a rectal thermometer and a heating system.
A midline scalp incision was made and the saggital and coronal sutures identified. A burr hole 3 mm in diameter was drilled 2 mm to the left of the saggital suture and 1 mm posterior to the coronal suture. Using an operating microscope, the dura was incised and a blunt, pre-manufactured plastic tip (ca. 6.0 mm long) was carefully inserted 0.8 mm deep into the subdural space. Rapid-curing cyanoacrylate glue (Histoacryl) was used to seal the burr hole and secure the position of the plastic tip. […]
The edema formation was assessed 24 hours after surgery. […] The wet weight of both hemispheres was determined and after drying for 24 hours at 110°C the dry weights were determined. Based on the increase in tissue water content, tissue swelling (i.e., increase in volume) may be calculated employing the following (modified) equation: (ΔDW(%))/(DWε)× 100(%Swelling) [formula] where DW % is the difference in tissue dry weight between the normal and edematous brain, and DW the dry weight (%) of the edematous brain.

In experiment [2] the target is MMP-3 (Homo sapiens, UniProt P08254). Kind of experiment: Automated MMP profiling assay (P218 quenched fluorescence), MMP-3. The format is biochemical. As for the experimental part: Truncated Prostromelysin-257 is expressed in a soluble form in E.coli as described by Marcy et al., Biochemistry, 30, 6476-6483, 1991. Soluble truncated prostromelysin is purified by a modification of the monoclonal antibody affinity chromatography method described by Housley et al., J. Biol. Chem., 268, 4481-87, 1993.
This assay was originally described by Knight et al., FEBS Letters, 296, 263-266, 1992, for a related substrate. The assay is run continuously in a 3.0ml cuvette using a Perkin-Elmer LS 50 B Spectrofluorimeter at 25 ^∞C in a final volume of 2.0 mls. P218 substrate (10mM) in 100% DMSO is diluted to a final concentration of 2.0 micromolar (µM) into assay buffer: 50mM MES, pH 6.5 containing 150mM NaCl, 10mM CaCl2, 0.005% Brij-35, and 1%(v/v) DMSO. Test compounds(10mM) in DMSO are diluted in assay buffer at an initial concentration of 10 to 100 micromolar. These are diluted to a final concentration in the assay from 10 nM to 1 µM depending upon their potency previously determined in primary thiopeptilide assay described above. The reaction is initiated by the addition of recombinant stromelysin (MMP-3) at a final concentration of 1.0 nM. Upon peptide cleavage, the fluorescent MCA group is detected using an excitation wavelength of 328 nanometers and an emission wavelength of 393 nanometers. The assay is linear from 0.2 to 5nM MMP-3 concentration and percent inhibition is calculated as described above for the primary thiopeptilide assay and IC50 values are determined by a linear regression analysis of percent inhibition versus log drug concentration. The peptide sequence of the MCA substrate, hereinafter designated P218, is shown below: [formula]
This assay is run with a protocol analogous to that reported for MMP-3 inhibition using the synthetic peptide P218 and each of the three enzymes and measuring quenched fluorescence. This assay can be run with each invention compound with the three enzymes MMP-3, MMP-9 and MMP-2 in parallel as adapted for a 96-well microtitre plate using a Hamilton AT ® workstation.

For experiment [3], the target named is T1, MMP-2 (Homo sapiens, UniProt P08253).
T1 sequence (P08253 110-660): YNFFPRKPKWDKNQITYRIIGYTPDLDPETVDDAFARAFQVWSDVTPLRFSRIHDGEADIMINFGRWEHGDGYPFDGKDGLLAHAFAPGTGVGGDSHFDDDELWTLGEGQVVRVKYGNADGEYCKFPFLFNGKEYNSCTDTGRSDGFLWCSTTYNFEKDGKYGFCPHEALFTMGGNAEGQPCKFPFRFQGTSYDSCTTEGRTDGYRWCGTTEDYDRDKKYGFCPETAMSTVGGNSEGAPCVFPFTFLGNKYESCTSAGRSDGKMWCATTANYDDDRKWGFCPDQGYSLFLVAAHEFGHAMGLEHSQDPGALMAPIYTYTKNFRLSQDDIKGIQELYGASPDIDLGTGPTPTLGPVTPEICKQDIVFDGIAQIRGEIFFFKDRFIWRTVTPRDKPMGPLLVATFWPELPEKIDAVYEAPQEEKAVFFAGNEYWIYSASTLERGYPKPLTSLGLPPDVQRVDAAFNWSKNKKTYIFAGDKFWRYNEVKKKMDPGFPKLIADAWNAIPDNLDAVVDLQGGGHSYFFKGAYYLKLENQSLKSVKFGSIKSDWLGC
Kind of experiment: Automated MMP profiling assay (P218 quenched fluorescence), MMP-2. The format is biochemical.

Experiment [4] has as its target T2, MMP-1 (Homo sapiens, UniProt P03956).
T2 sequence (P03956 100-469): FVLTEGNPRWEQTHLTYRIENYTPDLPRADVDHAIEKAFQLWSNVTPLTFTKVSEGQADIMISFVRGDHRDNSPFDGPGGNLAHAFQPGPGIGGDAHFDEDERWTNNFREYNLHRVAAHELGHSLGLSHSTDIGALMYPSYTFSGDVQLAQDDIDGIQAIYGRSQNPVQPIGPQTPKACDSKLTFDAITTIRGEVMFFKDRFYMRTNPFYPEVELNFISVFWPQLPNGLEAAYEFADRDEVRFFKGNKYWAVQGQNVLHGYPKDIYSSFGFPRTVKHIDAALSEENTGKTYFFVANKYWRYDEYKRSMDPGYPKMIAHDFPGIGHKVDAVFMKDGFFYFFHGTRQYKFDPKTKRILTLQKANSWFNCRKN
The experiment is described as follows: Automated MMP profiling assay (P218 quenched fluorescence), MMP-1. The format is biochemical.

Experiment [5] deals with MMP-9 (Homo sapiens, UniProt P14780). Kind of experiment: Automated MMP profiling assay (P218 quenched fluorescence), MMP-9. The format is biochemical. The method, then:
MMP-9 is isolated modifying the previously described procedures of Hibbs et al (J. Biol. Chem., 260, 2493-2500, 1984) and Wilhelm et al (J. Biol. Chem., 264, 17213-17221, 1989). Briefly, polymorphonuclear leukocytes (PMN) preparations are isolated as described above from 3 or more units of freshly drawn whole blood. Cells are resuspended in phosphate buffered saline (PBS) containing 100 ng/ml phorbol myristate acetate (PMA) in the presence of […] di-isopropylfluorophospate (DFP), 1 µg/ml leupeptin and aprotinin, and 1 mg/ml catalase for 1 hr at 37°C. Supernatants are collected by centrifugation (300 x g) and the samples are frozen at-70°C. All chromatographic methods are performed at 4°C. Thawed samples are concentrated 5-fold using an Amicon chamber equipped with a YM-10 membrane. The concentrate is pressure dialyzed against 0.02M Tris-HCl, 0.1 M NaCl, 1 mM CaCl2 , 1 µM ZnCl2, 0.001% Brij-35, 0.02% sodium azide (NaN3), pH 7.5 and applied to DEAE ion exchange chromatography resin which is previously equilibrated with the same buffer at a flow rate of 0.4 ml/min. The column is extensively washed with the same buffer and gelatinase is eluted as 4 ml fractions from the column with 0.02M Tris-HCl, 0.5 M NaCI, 1 mM CaCl2, 1 µM ZnCl2, 0.001% Brij-35, 0.02% NaN3, pH 7.5. Gelatinase containing fractions are observed by gelatin zymography (see below), loaded onto a gelatin agarose affinity resin and washed with the same buffer. […] The protein content associated with material is determined with a micro-BCA assay (Pierce, Rockford, IL), lyophilized and reconstituted to a desired working concentration (100 µg/ml).
This assay was originally described by Knight et al., FEBS Letters, 296, 263-266, 1992, for a related substrate. […] Upon peptide cleavage, the fluorescent MCA group is detected using an excitation wavelength of 328 nanometers and an emission wavelength of 393 nanometers. […]
This assay is run with a protocol analogous to that reported for MMP-3 inhibition using the synthetic peptide P218 and each of the three enzymes and measuring quenched fluorescence. […]

The Ki is a dissociation constant, usually derived from enzyme kinetics or from competition with a known ligand.

Read-outs that look alike come from different tables or passages of the source.

MMP-3, sequence (P08254 100-274 limits assumed): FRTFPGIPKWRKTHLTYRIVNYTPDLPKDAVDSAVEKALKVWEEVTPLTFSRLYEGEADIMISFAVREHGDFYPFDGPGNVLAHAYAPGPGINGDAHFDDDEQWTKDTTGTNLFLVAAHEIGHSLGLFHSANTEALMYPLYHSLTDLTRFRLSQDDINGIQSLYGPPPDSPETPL
MMP-9, sequence (P14780 94-707): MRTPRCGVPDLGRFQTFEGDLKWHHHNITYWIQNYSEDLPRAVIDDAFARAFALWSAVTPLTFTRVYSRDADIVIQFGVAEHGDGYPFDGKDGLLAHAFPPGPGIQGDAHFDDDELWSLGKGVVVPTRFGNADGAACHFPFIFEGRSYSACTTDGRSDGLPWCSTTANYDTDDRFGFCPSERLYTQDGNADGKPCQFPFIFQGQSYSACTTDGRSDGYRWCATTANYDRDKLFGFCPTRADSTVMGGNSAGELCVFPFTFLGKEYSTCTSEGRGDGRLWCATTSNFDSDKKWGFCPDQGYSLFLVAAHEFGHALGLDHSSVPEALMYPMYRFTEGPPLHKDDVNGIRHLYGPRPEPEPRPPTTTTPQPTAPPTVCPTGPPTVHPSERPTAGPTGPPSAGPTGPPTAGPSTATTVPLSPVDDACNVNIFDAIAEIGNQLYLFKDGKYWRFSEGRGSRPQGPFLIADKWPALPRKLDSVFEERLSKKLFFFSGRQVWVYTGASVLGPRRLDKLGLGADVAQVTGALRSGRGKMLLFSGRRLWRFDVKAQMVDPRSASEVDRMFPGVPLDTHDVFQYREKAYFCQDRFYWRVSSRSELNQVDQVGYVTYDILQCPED

For the compound `O=C(CC(CCn1nnc2ccccc2c1=O)C(=O)O)c1ccc(-c2ccc(Cl)cc2)cc1` (single isomer, unassigned; (+)) [Example 5, (+)-4-(4'-Chloro-biphenyl-4-yl)-4-oxo-2-[2-(4-oxo-4H-benzo[d][1,2,3]triazin-3-yl)-ethyl]-butyricacid], the “reduced the increase in tissue water content” value in experiment [1] worked out at 38%.

Regarding `CCOc1ccc(-c2ccc(C(=O)CC(CCN3C(=O)c4ccccc4C3=O)C(=O)O)cc2)cc1` (racemic) [Example 3], the Ki in experiment [2] (read-out: MMP-3 Ki) was found to be 14 nM; in experiment [3] (read-out: MMP-2 Ki), 1.1 nM; in experiment [4] (read-out: MMP-1 Ki), 3400 nM; in experiment [5] (read-out: MMP-9 Ki) it was 0.78 nM.

Regarding `CCOc1ccc(-c2ccc(C(=O)[C@H]3CC[C@@H](Sc4ccccc4)[C@@H]3C(=O)O)cc2)cc1` (racemic) [Example 1], the Ki came out at 20 nM in experiment [2] (read-out: MMP-3 Ki), 0.46 nM in experiment [3], 3700 nM in experiment [4] (read-out: MMP-1 Ki) and 15 nM in experiment [5] (read-out: MMP-9 Ki).

`O=C(CC(CCn1nnc2ccccc2c1=O)C(=O)O)c1ccc(-c2ccc(Cl)cc2)cc1` (racemic) [Example 6]: the Ki in experiment [2] is 6.2 nM; in experiment [3] (read-out: MMP-2 Ki), 1.2 nM; in experiment [4], 2400 nM; in experiment [5], 3 nM.
